This is an account of results in patent US20080312311A1, “Crystalline forms of 3-(2R-tetrahydrofuryl-methyl)-2-thioxanthine” (ASTRAZENECA AB, priority 2007, published 2008).

A short description of data set [1]: polymorph transformation on stirring in solution. The data set is classed as physicochemical.
Data set [2] can be described thus: relative stability of crystal forms versus temperature. The data set is classed as physicochemical.

Structures are written as SMILES.

With `O=c1[nH]c(=S)n(C[C@H]2CCCO2)c2nc[nH]c12` [3-(2R-tetrahydrofuryl-methyl)-2-thioxanthine], the entries for the “polymorph transformation on stirring in solution” value in data set [1] (stirring in a solution about or above 60° C.) and in data set [1] (stirring in solutions about or below 60° C.) were “transforms it to polymorph B” and “transforms it to polymorph A”, respectively. The “relative stability of the crystalline form” value in data set [2] (at ambient temperature, such as room temperature, Form A versus Form B) is given as “more stable”; in data set [2] (at temperatures over +65° C., Form B versus Form A) it was “more stable”.
